Data taken from paper PMC9781268, “2-Arylpropionic Acid Pyrazolamides as Cannabinoid CB2 Receptor Inverse Agonists Endowed with Anti-Inflammatory Properties” (Pharmaceuticals, 2022).
Values after ≈ are worked out from the molar mass of the structure shown.

Columns and labels:
[1] = Parallel artificial membrane permeability assay, gastrointestinal (PAMPA-GI / PAMPA-GTI); conditions: for Pe Exp / Classification / Fa: Table S1, PAMPA-GTI; for Papp at 8 h, 0.5 mM: PAMPA; for Fa / PAMPA-GI Fa Exp: absorbed fraction; for PAMPA-GI Fa Exp: soybean L-α-phosphatidylcholine membrane
Method: A 10 mM solution of each compound (tests and controls) was prepared in DMSO. Then, in a 5 mL glass flask, 250 µL of the freshly prepared solution was homogenized with 4750 µL of PBS at pH 6.6 to a concentration of 10 mM. The solution was then filtered in a 0.45 µm PVDF filter and set aside. Then, 180 µL of a solution of phosphate-bufffered saline (PBS, pH 7.4):DMSO (95:5) was added to the wells of the receptor plate, and 5 µL of the soy L-α-phosphatidylcholine lipid solution (20 mg/mL in dodecane) was added to the wells of the donor plate. After 5 min, the donor plate received 180 µL of the reserved solution containing each compound. […] After this period, the donor plate was removed, and the contents of the recipient plate were transferred to a UV reading plate and read (SpectraMax 5, Molecular Devices) at the maximum wavelengths for each compound. The blank was prepared with 180 µL of PBS solution (pH 7.4):DMSO (95:5). The experiments were carried out in triplicate with two different analyses (n = 2) [37]. The optical density values obtained from the readings at each selected wavelength for each of the compounds were analyzed by comparison with the values of the controls. These values were used to determine the absorbed fraction (Fa %) using the JMP® program version 10.0.

[2] = Parallel artificial membrane permeability assay, blood-brain barrier (PAMPA-BBB); conditions: for PAMPA-BBB Score: porcine brain lipid membrane
Method: In a 5 mL glass vial, 1 mg of each compound (test or control) was dissolved in 1 mL of ethanol. Then, 500 μL of ethanol and 3.5 mL of PBS at pH 7.4 were added to this solution. […] After 5 min, the donor plate received 180 μL of each compound solution in triplicate. […] The experiments were performed in triplicate with two different analyses (n = 2).

[3] = set-up: method as in ZHU et al., 2002; conditions: Table S1, PAMPA-GTI, drugs used as standard; ref ZHU et al., 2002; cited from earlier work
[4] = Table S2, PAMPA-BBB, drugs used as standard; cited from earlier work
CB2 receptor = target: CB2 receptor; set-up: method as in PMID 22172309; conditions: cited from earlier work; for Ki: CB2 receptor
CB1 receptors = tested on: CB1 receptors; set-up: method as in PMID 22172309; conditions: cited from earlier work
[5] = Aqueous solubility (thermodynamic, UV spectroscopy); type: physicochemical; conditions: aqueous buffer, thermodynamic from solid, phosphate buffer pH 7.4, 37 °C
Method: The test was performed based on the absorbance obtained by ultraviolet spectroscopy. The scanning wavelength was determined according to the highest absorbance observed for each compound. Saturated aqueous solution of the analyzed compounds were stirred for 4 h at 37 °C, and then filtered through a 0.45 µm PVDF filter and transferred to a quartz cuvette (10 mm optical path) for reading. Solubility was determined by linear regression based on the equation of the line.

[6] = Distribution coefficient at pH 7.4 (shake-flask, octanol/phosphate buffer); type: physicochemical; conditions: 1-octanol/buffer pH 7.4; n-octanol/buffer partitioning at pH 7.4, UV method; read-out: Log D7.4
Method: The assay was performed based on the shake-flask method and the absorbance readings by ultraviolet spectroscopy at maximum absorbance wavelength. To a Falcon tube with a capacity of 15 mL, 5 mL of buffer solution at pH 7.4 and 5 mL of 1-octanol were added. Then, the tested compounds were added at defined concentrations of approximately 10–15 µM, and the mixtures were homogenized via vigorous manual shaking. Next, the Falcon tubes were stirred for 4 h at 37 °C, and the experiment was carried out in triplicate for each compound. Subsequently, each sample was placed in a separatory funnel, and the collected aqueous phase was filtered through a 0.45 µm PVDF filter and transferred to a quartz cuvette (10 mm optical path) for UV/Vis reading. The distribution coefficient of each compound at pH 7.4 was determined by linear regression using the straight-line equation [33].

plasma carboxylesterases = test: Plasma stability against enzymatic hydrolysis; type: in vitro ADME, Wistar rats; conditions: rat plasma, determined after 240 min
Method: For the evaluation of plasma stability against plasma carboxylesterases, a pool of plasma male Wistar rats weighing 300–360 g kept in the vivarium of the Laboratory of Biochemical and Molecular Pharmacology-UFRJ was used. Blood was collected with heparin and kept on ice. Then, the samples were centrifuged at 2000 rpm for 15 min at 20 °C, with subsequent removal of the plasma. The plasma was then diluted 80% (v/v) with phosphate buffer (PBS; pH = 7.4) at 37 °C. The experiments performed in this work were approved by the Ethics Committee on the Use of Animals in Scientific Experiments of the Health Sciences Center of the Federal University of Rio de Janeiro (Number 028/15). The biological matrix was incubated at 37 °C under agitation for 30, 60, 120, and 240 min. The degree of degradation was evaluated by HPLC-PDA with methyl 1,1′bisphenyl-4-carboxylate as an internal standard (PI), using an isocratic mobile phase of 70%:30% acetonitrile:water (0–15 min), an injection volume of 20 μL, a flow rate of 1 mL/min, and detection at 254 nm.

[7] = tested on: formalin-induced licking behavior in mice; test: Formalin-induced licking behavior; type: in vivo, Swiss Webster mice; conditions: morphine 2.5 mg/kg i.p., ASA 200 mg/kg p.o., LASSBio-2265 1, 3 and 10 mg/kg p.o., compared to vehicle
Method: This assay was performed as described by Hunskaar et al. and adapted by Gomes et al.. This model was characterized by a response that occurred in two phases. The first phase (acute neurogenic pain) occurred during the first 5 min after the intraplantar injection of formalin, and the second phase (inflammatory pain) occurred 15 to 30 min post-injection. Mice were pretreated with oral doses of LASSBio-2265 (11, at 1, 3 or 10 mg/kg, p.o.), morphine (2.5 mg/kg, i.p.), acetylsalicylic acid (ASA, 200 mg/kg, p.o.), or the vehicle (same amount of DMSO used to solubilize the substances + NaCl 0.9%) 60 min before the administration of formalin. […] Then, mice (n = 7 per group) received 20 μL of formalin (2.5% v/v) in the dorsal surface of the left hind paw. The time that the mice spent licking the injected paw was immediately recorded. […] The final volume administered to mice was 0.1 mL.

[8] = PAMPA, 2.75 h, 0.2 mg/mL, pH 7.4

Nc1nc2c(ncn2COCCO)c(=O)[nH]1 [Acyclovir, reference compound]
Pe Exp [1]: 0,08 10-6 cm/s

CC(C)NCC(O)COc1ccc(CC(N)=O)cc1 (centres unmarked) [Atenolol, reference compound]
Pe experimental [2, 8]: 0,46 10-6 cm s-1
Classification ([2]; Table S2, PAMPA-BBB): CNS -
Pe Lit [3]: 0,1 10-6cm/s
Pe literatura [4]: 0,8 10-6 cm s-1

Cn1c(=O)c2c(ncn2C)n(C)c1=O [Caffeine, reference compound]
Pe experimental [2, 8]: 0,81 10-6 cm s-1
Classification ([2]; Table S2, PAMPA-BBB): CNS -
Pe literatura [4]: 1,3 10-6 cm s-1

CCCCC/C=C\C/C=C\C/C=C\C/C=C\CCCC(=O)Nc1c(C)n(C)n(-c2ccccc2)c1=O [Compound 5]
Ki (CB2 receptor): 5.4 µM
Affinity for CB2 receptors (CB2 receptor): micromolar affinity
Affinity for CB1 receptors (CB1 receptors): micromolar affinity

CCCCC/C=C\C/C=C\C/C=C\C/C=C\CCCC(=O)N(C)c1c(C)n(C)n(-c2ccccc2)c1=O [Compound 6]
Ki (CB2 receptor): 3 µM
Affinity for CB2 receptors (CB2 receptor): micromolar affinity
Affinity for CB1 receptors (CB1 receptors): micromolar affinity

Cc1c(NC(=O)C(C)c2ccc(CC(C)C)cc2)c(=O)n(-c2ccccc2)n1C (centres unmarked) [Compound 7, N-(1,5-dimethyl-3-oxo-2-phenyl-2,3-dihydro-1H-pyrazol-4-yl)-2-(4-isobutylphenyl) propanamide]
solubility at 4 h [5]: 12.1 µM (≈ 4.75 µg/mL)
logD [6]: 2.47
Papp at 2.75 h, 0.2 mg/mL ([2]; PAMPA, pH 7.4): 12.8 ×10⁻⁶ cm/s
Classification ([2]; Table S2, PAMPA-BBB): CNS +
Pe experimental ([2]; Table S2, PAMPA-BBB): 12,77 10-6 cm s-1
PAMPA-BBB Score [2]: CNS+ (CNS+ (high predicted BBB permeability) Pe > 4.0 × 10^−6 cm/s)
Plasma Metabolization Rate (plasma carboxylesterases): 56.13%
melting point: 151.2 °C
Papp at 8 h, 0.5 mM [1]: 15.4 ×10⁻⁶ cm/s
Classification [1]: HIGH (high intestinal permeability: >70%)
Pe Exp [1]: 15,38 10-6 cm/s
Fa [1]: 99,71%
PAMPA-GI Fa Exp [1]: 99.71%

Cc1c(NC(=O)C(C)c2ccc(-c3ccccc3)c(F)c2)c(=O)n(-c2ccccc2)n1C (centres unmarked) [Compound 8, N-(1,5-dimethyl-3-oxo-2-phenyl-2,3-dihydro-1H-pyrazol-4-yl)-2-(2-fluoro-[1,1^′-biphenyl]-4-ylil) propanamide]
solubility at 4 h [5]: 59.1 µM (≈ 25.4 µg/mL)
logD [6]: 1.94
Papp at 2.75 h, 0.2 mg/mL ([2]; PAMPA, pH 7.4): 17.2 ×10⁻⁶ cm/s
Classification ([2]; Table S2, PAMPA-BBB): CNS +
Pe experimental ([2]; Table S2, PAMPA-BBB): 17,25 10-6 cm s-1
PAMPA-BBB Score [2]: CNS+ (CNS+ (high predicted BBB permeability) Pe > 4.0 × 10^−6 cm/s)
Plasma Metabolization Rate (plasma carboxylesterases): 18.66%
melting point: 214.8 °C
Papp at 8 h, 0.5 mM [1]: 9.69 ×10⁻⁶ cm/s
Classification [1]: HIGH (high intestinal permeability: >70%)
Pe Exp [1]: 9,69 10-6 cm/s
Fa [1]: 97,49%
PAMPA-GI Fa Exp [1]: 97.49%

Cc1c(NC(=O)Cc2ccc(-c3ccccc3)cc2)c(=O)n(-c2ccccc2)n1C [Compound 9, 2-([1,1’-biphenyl]-4-yl)-N-(1,5-dimethyl-3-oxo-2-phenyl-2,3-dihydro-1H-pyrazol-4-yl) acetamide]
solubility at 4 h [5]: 21.3 µM (≈ 8.47 µg/mL)
logD [6]: 2.14
Papp at 2.75 h, 0.2 mg/mL ([2]; PAMPA, pH 7.4): 4.51 ×10⁻⁶ cm/s
Classification ([2]; Table S2, PAMPA-BBB): CNS +
Pe experimental ([2]; Table S2, PAMPA-BBB): 4,51 10-6 cm s-1
PAMPA-BBB Score [2]: CNS+ (CNS+ (high predicted BBB permeability) Pe > 4.0 × 10^−6 cm/s)
Plasma Metabolization Rate (plasma carboxylesterases): 24.56%
melting point: 221.8 °C
Papp at 8 h, 0.5 mM [1]: 11 ×10⁻⁶ cm/s
Classification [1]: HIGH (high intestinal permeability: >70%)
Pe Exp [1]: 11,00 10-6 cm/s
Fa [1]: 98,47%
PAMPA-GI Fa Exp [1]: 98.47%

Cc1c(N(C)C(=O)C(C)c2ccc(CC(C)C)cc2)c(=O)n(-c2ccccc2)n1C (centres unmarked) [Compound 10, N-(1,5-dimethyl-3-oxo-2-phenyl-2,3-dihydro-1H-pyrazol-4-yl)-2-(4-isobutylphenyl)-N-methylpropanamide]
solubility at 4 h [5]: 47.7 µM (≈ 19.3 µg/mL)
logD [6]: 2.43
Papp at 2.75 h, 0.2 mg/mL ([2]; PAMPA, pH 7.4): 12.7 ×10⁻⁶ cm/s
Classification ([2]; Table S2, PAMPA-BBB): CNS +
Pe experimental ([2]; Table S2, PAMPA-BBB): 12,68 10-6 cm s-1
PAMPA-BBB Score [2]: CNS+ (CNS+ (high predicted BBB permeability) Pe > 4.0 × 10^−6 cm/s)
Plasma Metabolization Rate (plasma carboxylesterases): 32.50%
Papp at 8 h, 0.5 mM [1]: 2.51 ×10⁻⁶ cm/s
Classification [1]: HIGH (high intestinal permeability: >70%)
Pe Exp [1]: 9,15 10-6 cm/s
Fa [1]: 96,91%

O=c1ccc2ccccc2o1 [Coumarin, reference compound]
Classification [1]: HIGH (high intestinal permeability: >70%)
Pe Exp [1]: 22,65 10-6 cm/s
Fa [1]: 99,98%

CN1C(=O)CN=C(c2ccccc2)c2cc(Cl)ccc21 [Diazepam, reference compound]
Classification ([2]; Table S2, PAMPA-BBB): CNS +
Pe experimental ([2]; Table S2, PAMPA-BBB): 14,30 10-6 cm s-1
Pe literatura [4]: 16 10-6 cm s-1

O=C(O)Cc1ccccc1Nc1c(Cl)cccc1Cl [Diclofenac, reference compound]
Pe Lit [3]: 12,5 10-6cm/s

CCn1cc(C(=O)O)c(=O)c2cc(F)c(N3CCNCC3)nc21 [Enoxacin, reference compound]
Pe experimental [2, 8]: 0,53 10-6 cm s-1
Classification ([2]; Table S2, PAMPA-BBB): CNS -
Pe literatura [4]: 0,9 10-6 cm s-1

CC(=O)N1CCN(c2ccc(OCC3COC(Cn4ccnc4)(c4ccc(Cl)cc4Cl)O3)cc2)CC1 (centres unmarked) [Ketoconazole, reference compound]
Pe Lit [3]: 3,3 10-6cm/s
Classification [1]: HIGH (high intestinal permeability: >70%)
Pe Exp [1]: 4,93 10-6 cm/s
Fa [1]: 84,68%

C[C@]12C=CC(=O)C=C1CC[C@@H]1[C@@H]2C(=O)C[C@@]2(C)[C@H]1CC[C@]2(O)C(=O)CO [Prednisone, reference compound]
Pe Exp [1]: 3,09 10-6 cm/s

CNC(=C[N+](=O)[O-])NCCSCc1ccc(CN(C)C)o1 [Ranitidine, reference compound]
Classification [1]: LOW (low intestinal permeability: <29%)
Pe Exp [1]: 0,38 10-6 cm/s
Fa [1]: 13,48%

O=C(O)c1cc(/N=N/c2ccc(S(=O)(=O)Nc3ccccn3)cc2)ccc1O [Sulfassalazine]
Pe Lit [3]: 0,3 10-6cm/s

CC(=O)Oc1ccccc1C(=O)O [acetylsalicylic acid, reference compound]
Analgesia in the first phase of the formalin test [7]: only morphine (2.5 mg/kg) promoted significant analgesia
Pe Lit [3]: 3,8 10-6cm/s
Classification [1]: AVERAGE (medium intestinal permeability: 30–69%)
Pe Exp [1]: 1,69 10-6 cm/s
Fa [1]: 47,36%

CN1CC[C@]23c4c5ccc(O)c4O[C@H]2[C@@H](O)C=C[C@H]3[C@H]1C5 [morphine, reference compound]
Analgesia in the first phase of the formalin test [7]: promoted significant analgesia
